Experimental findings from patent US8642642B2, “Heterocyclic arylsulphones suitable for treating disorders that respond to modulation of the serotonin 5HT6 receptor” (Abbott Laboratories, priority 2006, dated 2014) are described below.

Where a name gives a salt, the structure may show the parent alone.

The target in the experiment is T1, human 5-HT6 receptor (Homo sapiens, UniProt P50406).
T1 construct: expressed in transfected cells
Briefly: Human 5-HT6 receptor binding assay (3H-LSD displacement). The conditions noted are these: membranes from HEK-293 cells, 2 nM 3H-LSD. Here is the method: The substance to be tested was either dissolved in methanol/Chremophor® (BASF-AG) or in dimethyl sulfoxide and then diluted with water to the desired concentration.
The compounds were dissolved in a concentration of 10^−2 M or 10^−3 M in DMSO. Further dilutions were performed in incubation buffer.
The procedure for the binding assay was based on the method of Monsma et al. (1993) Mol Pharmacol 43: 320-327. The binding reaction was carried out in a total volume of 0.250 ml for 60 min at 37° C. Membranes from HEK-293 cells stably expressing the human 5-HT6 receptor were incubated with 2 nM ^3H-LSD in the presence or absence of various concentrations of test compound for 60 min at 37° C. Non-specific binding was defined with 100 μM Serotonin (5-HT). Assays were performed in duplicate. Bound and free radioligand was separated by filtration and bound radioactivity determined by liquid scintillation counting.
The specific ligand binding to the receptors was defined as the difference between the total binding and the nonspecific binding determined in the presence of an excess of unlabelled 5-HT. The results are expressed as a percent of control specific binding obtained in the presence of compound. The IC50 values (concentration causing a half-maximal inhibition of control specific binding) and Hill coefficients (nH) were determined by non-linear regression analysis of the competition curves using Hill equation curve fitting.
The inhibition constants (Ki) were calculated from the Cheng Prusoff equation (Ki=IC50/(1+(L/KD)), where L=concentration of radioligand in the assay, and KD=affinity of the radioligand for the receptor).

T1 sequence (P50406 whole entry): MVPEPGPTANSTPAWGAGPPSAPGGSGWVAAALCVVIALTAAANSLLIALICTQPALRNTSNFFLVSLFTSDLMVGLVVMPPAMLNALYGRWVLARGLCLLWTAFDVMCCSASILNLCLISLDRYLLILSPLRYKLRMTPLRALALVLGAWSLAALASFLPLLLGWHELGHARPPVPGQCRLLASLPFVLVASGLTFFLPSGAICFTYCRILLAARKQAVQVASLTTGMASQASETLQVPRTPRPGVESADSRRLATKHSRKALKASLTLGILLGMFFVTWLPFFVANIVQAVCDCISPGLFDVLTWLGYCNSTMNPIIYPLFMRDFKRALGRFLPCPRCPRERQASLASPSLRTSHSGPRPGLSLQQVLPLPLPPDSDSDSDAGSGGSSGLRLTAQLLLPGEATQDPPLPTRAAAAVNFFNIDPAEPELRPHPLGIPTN

In the case of `CCCN1CC[C@@H](c2ccc(NS(=O)(=O)c3cccc(OC(F)(F)F)c3)cc2)C1` [Example 1, 3-Trifluoromethoxy-N-[4-((S)-1-propyl-pyrrolidin-3-yl)-phenyl]-benzenesulfonamide and its hydrochloride], the Ki lay in the range of 10 to 50 nM.

`O=S(=O)(Nc1cccc(C2CCNC2)c1)c1cccc(OC(F)(F)F)c1` (stereo not drawn) [Example 6, N-(3-Pyrrolidin-3-yl-phenyl)-3-trifluoromethoxy-benzenesulfonamide] displayed a Ki of 1 to 10 nM. `O=S(=O)(Nc1cccc([C@@H]2CCNC2)c1)c1cccc(OC(F)(F)F)c1` [Example 7, N—((S)-3-Pyrrolidin-3-yl-phenyl)-3-trifluoromethoxy-benzene sulfonamide] came in with a Ki of 1 to 10 nM. The same measure for `CCCN1CCC(c2cc(NS(=O)(=O)c3cccc(OC(F)(F)F)c3)ccc2OC)C1` (stereo not drawn) [Example 8, N-[4-Methoxy-3-(1-propyl-pyrrolidin-3-yl)-phenyl]-3-trifluoromethoxy-benzenesulfonamide]: 10 to 50 nM; for `Cc1c(S(=O)(=O)Nc2cccc(C3CNC3)c2)sc2ccc(Cl)cc12` [Example 9, 5-Chloro-3-methyl-benzo[b]thiophene-2-sulfonic acid (3-azetidin-3-yl-phenyl)-amide]: 1 to 10 nM; for `Cc1nc(-c2cccc(S(=O)(=O)Nc3cccc(C4CNC4)c3)c2)cs1` [Example 10, N-(3-Azetidin-3-yl-phenyl)-3-(2-methyl-thiazol-4-yl)-benzenesulfonamide]: 1 to 10 nM. The same measure for `O=S(=O)(Nc1ccc(C2CNC2)cc1)c1cccc(C(F)(F)F)c1` [Example 11, N-(4-Azetidin-3-yl-phenyl)-3-trifluoromethyl-benzenesulfonamide]: 1 to 10 nM; for `O=S(=O)(Nc1cccc(C2CNC2)c1)c1cccs1` [Example 12, Thiophene-2-sulfonic acid (3-azetidin-3-yl-phenyl)-amide]: 10 to 50 nM; for `O=S(=O)(Nc1cccc(C2CNC2)c1)c1cc(C(F)(F)F)cc(C(F)(F)F)c1` [Example 13, N-(3-Azetidin-3-yl-phenyl)-3,5-bis-trifluoromethyl-benzenesulfonamide]: 10 to 50 nM. Compound `COc1ccc(OC)c(S(=O)(=O)Nc2cccc(C3CNC3)c2)c1` [Example 14, N-(3-Azetidin-3-yl-phenyl)-2,5-dimethoxy-benzenesulfonamide] displayed an inhibitory constant (Ki) of 1 to 10 nM. Turning to `O=S(=O)(Nc1cccc(C2CNC2)c1)c1cccc(F)c1` [Example 15, N-(3-Azetidin-3-yl-phenyl)-3-fluoro-benzenesulfonamide], the Ki was 1 to 10 nM. Turning to `O=S(=O)(Nc1cccc(C2CNC2)c1)c1cc(Cl)sc1Cl` [Example 16, 2,5-Dichloro-thiophene-3-sulfonic acid (3-azetidin-3-yl-phenyl)-amide], the Ki lay within 1 to 10 nM. In the case of `O=S(=O)(Nc1cccc(C2CNC2)c1)c1cccc(Cl)c1` [Example 17, N-(3-Azetidin-3-yl-phenyl)-3-chloro-benzenesulfonamide] it was < 1 nM; in that of `O=S(=O)(Nc1cccc(C2CNC2)c1)c1cc(Cl)cc(Cl)c1` [Example 18, N-(3-Azetidin-3-yl-phenyl)-3,5-dichloro-benzenesulfonamide], 1 to 10 nM; in that of `Cc1cccc(S(=O)(=O)Nc2cccc(C3CNC3)c2)c1` [Example 19, N-(3-Azetidin-3-yl-phenyl)-3-methyl-benzenesulfonamide], 1 to 10 nM. For the compound `COc1ccc(Br)cc1S(=O)(=O)Nc1cccc(C2CNC2)c1` [Example 20, N-(3-Azetidin-3-yl-phenyl)-5-bromo-2-methoxy-benzenesulfonamide], the Ki was < 1 nM. The same measure for `O=S(=O)(Nc1cccc(C2CNC2)c1)c1ccc(S(=O)(=O)c2ccccc2)s1` [Example 21, 5-Benzenesulfonyl-thiophene-2-sulfonic acid (3-azetidin-3-yl-phenyl)-amide]: 50 to 150 nM; for `COc1ccc(C)cc1S(=O)(=O)Nc1cccc(C2CNC2)c1` [Example 22, N-(3-Azetidin-3-yl-phenyl)-2-methoxy-5-methyl-benzenesulfonamide]: 1 to 10 nM; for `CSc1nccc(-c2ccc(S(=O)(=O)Nc3cccc(C4CNC4)c3)s2)n1` [Example 23, 5-(2-Methylsulfanyl-pyrimidin-4-yl)-thiophene-2-sulfonic acid (3-azetidin-3-yl-phenyl)-amide]: 10 to 50 nM. In the case of `N#Cc1cccc(S(=O)(=O)Nc2cccc(C3CNC3)c2)c1` [Example 24, N-(3-Azetidin-3-yl-phenyl)-3-cyano-benzenesulfonamide] it was 50 to 150 nM; in that of `COc1cccc(S(=O)(=O)Nc2cccc(C3CNC3)c2)c1` [Example 25, N-(3-Azetidin-3-yl-phenyl)-3-methoxy-benzenesulfonamide], 1 to 10 nM. In the case of `Cc1c(S(=O)(=O)Nc2ccc(C3CNC3)cc2)sc2ccc(Cl)cc12` [Example 26, 5-Chloro-3-methyl-benzo[b]thiophene-2-sulfonic acid (4-azetidin-3-yl-phenyl)-amide] it was 1 to 10 nM. With `O=S(=O)(Nc1cccc(C2CNC2)c1)c1cccc(C(F)(F)F)c1` [Example 31, N-(3-Azetidin-3-yl-phenyl)-3-trifluoromethyl-benzenesulfonamide], the Ki is 1 to 10 nM. For the compound `O=S(=O)(Nc1cccc(C2CNC2)c1)c1cccc(OC(F)(F)F)c1` [Example 32, N-(3-Azetidin-3-yl-phenyl)-3-trifluoromethoxy-benzenesulfonamide], the Ki lay in the range of 1 to 10 nM. Compound `CCCN1CC[C@@H](c2ccc(NS(=O)(=O)c3cccc([C@H](C)C(F)F)c3)cc2)C1` [Example 34, 3-((S)-2,2-Difluoro-1-methyl-ethyl)-N-[4-((S)-1-propyl-pyrrolidin-3-yl)-phenyl]-benzenesulfonamide] registered a Ki of 10 to 50 nM. The same measure for `CCCN1CC(c2ccc(NS(=O)(=O)c3cc(Cl)ccc3Cl)cc2)C1` [Example 40, 2,5-Dichloro-N-[4-(1-propyl-azetidin-3-yl)-phenyl]-benzenesulfonamide]: 50 to 150 nM. On to `CCCN1CC(c2ccc(NS(=O)(=O)c3cc(C(F)(F)F)cc(C(F)(F)F)c3)cc2)C1` [Example 42, N-[4-(1-Propyl-azetidin-3-yl)-phenyl]-3,5-bis-trifluoromethyl-benzenesulfonamide], for which the Ki was 50 to 150 nM. Compound `CCCN1CC(c2ccc(NS(=O)(=O)c3cc(C)ccc3C)cc2)C1` [Example 43, 2,5-Dimethyl-N-[4-(1-propyl-azetidin-3-yl)-phenyl]-benzenesulfonamide] displayed a Ki of 10 to 50 nM. As to `CCCN1CC(c2ccc(NS(=O)(=O)c3ccc(F)c(Cl)c3)cc2)C1` [Example 44, 3-Chloro-4-fluoro-N-[4-(1-propyl-azetidin-3-yl)-phenyl]-benzenesulfonamide], the Ki was in the range of 50 to 150 nM.

Take `CCCN1CC(c2ccc(NS(=O)(=O)c3cccc(F)c3)cc2)C1` [Example 45, 3-Fluoro-N-[4-(1-propyl-azetidin-3-yl)-phenyl]-benzenesulfonamide]: the Ki lay within 10 to 50 nM. `CCCN1CC(c2ccc(NS(=O)(=O)c3cc(Cl)sc3Cl)cc2)C1` [Example 46, 2,5-Dichloro-thiophene-3-sulfonic acid [4-(1-propyl-azetidin-3-yl)-phenyl]-amide]: the Ki was in the range of 50 to 150 nM. Compound `CCCN1CC(c2ccc(NS(=O)(=O)c3ccc(Cl)s3)cc2)C1` [Example 47, 5-Chloro-thiophene-2-sulfonic acid [4-(1-propyl-azetidin-3-yl)-phenyl]-amide] came in with an inhibition constant Ki of 10 to 50 nM. Compound `CCCN1CC(c2ccc(NS(=O)(=O)c3cccc(Cl)c3)cc2)C1` [Example 48, 3-Chloro-N-[4-(1-propyl-azetidin-3-yl)-phenyl]-benzenesulfonamide] registered a Ki of 10 to 50 nM. The compound `CCCN1CC(c2ccc(NS(=O)(=O)c3cc(Cl)cc(Cl)c3)cc2)C1` [Example 49, 3,5-Dichloro-N-[4-(1-propyl-azetidin-3-yl)-phenyl]-benzenesulfonamide] showed a Ki of 10 to 50 nM. `CCCN1CC(c2ccc(NS(=O)(=O)c3cccc(C)c3)cc2)C1` [Example 50, 3-Methyl-N-[4-(1-propyl-azetidin-3-yl)-phenyl]-benzenesulfonamide] showed an inhibition constant (Ki) of 50 to 150 nM.

Consider `CCCN1CC(c2ccc(NS(=O)(=O)c3cccc(Cl)c3Cl)cc2)C1` [Example 51, 2,3-Dichloro-N-[4-(1-propyl-azetidin-3-yl)-phenyl]-benzenesulfonamide], for which the Ki lay within 50 to 150 nM. As to `CCCN1CC(c2ccc(NS(=O)(=O)c3cccc(Br)c3)cc2)C1` [Example 52, 3-Bromo-N-[4-(1-propyl-azetidin-3-yl)-phenyl]-benzenesulfonamide], the Ki lay in the range of 10 to 50 nM. The same measure for `CCCN1CC(c2ccc(NS(=O)(=O)c3ccc(F)c(F)c3)cc2)C1` [Example 54, 3,4-Difluoro-N-[4-(1-propyl-azetidin-3-yl)-phenyl]-benzenesulfonamide]: 50 to 150 nM; for `O=S(=O)(Nc1cccc(C2CCCNC2)c1)c1cccc(OC(F)(F)F)c1` (stereo not drawn) [Example 63, N-(3-Piperidin-3-yl-phenyl)-3-trifluoromethoxy-benzenesulfonamide hydrochloride]: 10 to 50 nM.

As a reminder, the Ki is a dissociation constant, usually derived from enzyme kinetics or from competition with a known ligand. Higher therefore signals lower affinity.
